Consider 11 compounds from ChEMBL document CHEMBL1201862, “PubChem BioAssay data set” (2004).

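Briefly, cells in 96-well plates were exposed to five compound concentrations for 48 h, and endpoints were estimated by linear interpolation. The concentration for 50% growth inhibition is given as GI50.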 Activity calls are given as the source filed them. No stated cut-off is given here; in the data, active = GI50 up to about 1.1 µM and inactive = higher.

Holding throughout (test): NCI anticancer screen, dose series, 48 h
Test [1] has as its system SK-MEL-5.
Test [2] concerns K562.
Test [3] deals with NCI-H460.
Test [4] deals with OVCAR-4.
In test [5] the test system is SK-MEL-2.
The subject of test [6] is COLO 205.
The subject of test [7] is NCI-H522.
In test [8] the test system is CAKI-1.
Test [9] deals with UACC-257.
Test [10] concerns DLD-1.
Test [11] deals with SNB-75.
Test [12] concerns IGROV-1.
Test [13] has as its system HOP-18.
In test [14] the test system is 786-0.

Regarding `O=S(=O)(CCBr)CCBr`, the GI50 is 7.35 µM (inactive) in test [1]; 3.98 µM (inactive) in [2]; 12 µM (inactive) in test [3]; 9.57 µM (inactive) in test [4]; 11.3 µM (inactive) in test [5]; 3.21 µM (inactive) in test [6]. The GI50 is 1.48 µM (inactive) in test [7]; 5.3 µM (inactive) in [8]; 3.82 µM (inactive) in test [9]; 2.86 µM (inactive) in test [10]; 12.8 µM (inactive) in [11]; 5.42 µM (inactive) in test [12]. Also, the GI50 in [13] is 15 µM (inactive).
As for `N#CCCN(CCC#N)c1ccc(/C=C2\N=C(c3cc([N+](=O)[O-])ccc3Cl)N(S(=O)(=O)c3ccccc3)C2=O)cc1`, the GI50 in test [1], in test [2], in [4], in [5], in test [6] and in test [7] was > 100 µM (inactive) throughout. In addition, the GI50 in test [8] was > 100 µM (inactive); in test [10], > 100 µM (inactive); in test [12], > 100 µM (inactive); in test [13], 37.7 µM (inactive).
Regarding `C1=CC=C2NCCCCCCC/N=C3/C=CC=CC=C3NCCCCCCC/N=C\2C=C1`, the GI50 in test [2] was 30.1 µM (inactive); in test [3], 25.4 µM (inactive); in [4], 64.3 µM (inactive); in [5], > 100 µM (inactive); in test [6], > 100 µM (inactive); in test [7], 52.5 µM (inactive). In addition, the GI50 in test [8] was > 100 µM (inactive); in test [9] it was > 100 µM (inactive); in [10], 49.4 µM (inactive); in test [11] it was 25.8 µM (inactive); in test [12] it was 10 µM (inactive); in test [14] it was > 100 µM (inactive).
With `CC(=O)C(=O)NC1/C=C(C)\C=C/C(O)C/C=C(C)\C=C/C(O)CC2OC(=O)C1(C)C(=O)C2C` (configuration not stated), the GI50 was > 100 µM (inactive) in test [1]; > 61.1 µM (inactive) in test [2]; > 100 µM (inactive) in [3]; > 100 µM (inactive) in [4]; > 100 µM (inactive) in test [5]; > 62.2 µM (inactive) in test [6]. The GI50 in test [7], in test [8], in test [9], in [10], in [11] and in test [12] was > 100 µM (inactive) throughout. Moreover, the GI50 in test [13] is > 100 µM (inactive).
Consider `CCN(CC)CCCOC(=O)/C=C/c1c(C)[nH]c(=O)[nH]c1=O`, for which the GI50 in [1] is > 625 µM (inactive); in test [2], > 625 µM (inactive); in test [3], > 625 µM (inactive); in test [4], > 394 µM (inactive); in test [5] it was > 394 µM (inactive); in test [6], > 625 µM (inactive). Further, the GI50 in test [7], in test [8], in test [9], in test [10], in [11] and in test [12] was > 625 µM (inactive) in each case. Moreover, in test [13], the GI50 was > 625 µM (inactive).
For `CSc1nc(NC2OC(CO)C(O)C(O)C2O)c(N)c(=O)n1C` (configuration not stated), the GI50 in [1], in [2], in test [3], in test [4], in [5] and in test [6] was > 100 µM (inactive) each time. The GI50 in test [7], in test [9], in test [10], in test [11], in [12] and in test [13] was > 100 µM (inactive) in each case.
On to `CSC(=S)N(C)c1nc(N(C)C)s[s+]1`, for which the GI50 in test [1], in [2], in test [3], in test [4], in [5] and in [7] was > 100 µM (inactive) throughout. For the same compound, the GI50 in [8], in test [9], in test [10], in test [11], in test [12] and in [13] was > 100 µM (inactive) in each case. For the same compound, the GI50 in test [14] was > 100 µM (inactive).
In the case of `C=C1CC(OC)(C(OC)C(=O)N(C)[C@H]2OCO[C@H]3C2O[C@H](C[C@@H](COC)OC)C(C)(C)C3OC)O[C@H](C)[C@@H]1C` (some centres not stated), the GI50 in test [1] is > 9.16 µM (inactive); in test [2] it was 13.6 µM (inactive); in test [3], 9.46 µM (inactive); in test [4], 3.61 µM (inactive); in test [6] it was 8.97 µM (inactive); in test [7], 11.5 µM (inactive). Also, the GI50 in test [8] was 5.69 µM (inactive); in test [9], 11.6 µM (inactive); in test [10], 18.3 µM (inactive); in [11], 4.4 µM (inactive); in test [12] it was 10.1 µM (inactive); in test [13] it was 25.5 µM (inactive).
With `C[n+]1ccc(Nc2ccc(NC(=O)c3ccc(Nc4cc[n+](C)c5ccc([N+](=O)[O-])cc45)cc3[N+](=O)[O-])cc2)cc1`, the GI50 in test [1] is 24.1 µM (inactive); in test [2] it was 14.3 µM (inactive); in test [3], 25.7 µM (inactive); in test [4] it was 51.2 µM (inactive); in test [5], 48.8 µM (inactive); in [6], 14 µM (inactive). Besides, the GI50 was 16.6 µM (inactive) in [7]; > 75.3 µM (inactive) in [8]; 24.3 µM (inactive) in test [9]; > 92 µM (inactive) in test [10]; > 57.4 µM (inactive) in [11]; 20.3 µM (inactive) in test [13].
For the compound `CN1CCC(c2c(O)cc(O)c3c(=O)cc(-c4ccccc4Cl)oc23)C(O)C1` (configuration not stated), the GI50 is 0.0344 µM (active) in test [1]; 0.259 µM (active) in [2]; 0.0592 µM (active) in [3]; 0.124 µM (active) in test [4]; 0.0323 µM (active) in test [5]; 0.0811 µM (active) in test [6]. For the same compound, the GI50 is 0.136 µM (active) in [7]; 0.0628 µM (active) in test [8]; 0.0627 µM (active) in test [9]; 0.0368 µM (active) in test [10]; 0.0219 µM (active) in test [11]; 0.0735 µM (active) in test [12]. In addition, the GI50 in test [13] is 0.102 µM (active); in test [14] it was 0.0498 µM (active).
Regarding `COc1cc(O)c(Cc2ccccc2O)c(O)c1C(=O)CCc1ccccc1` [UVARETIN], the GI50 in test [1] is 3.69 µM (inactive); in test [2], 5.26 µM (inactive); in test [3], 4.49 µM (inactive); in test [4], 6.55 µM (inactive); in test [5] it was 4.71 µM (inactive); in test [6] it was 5.92 µM (inactive). In addition, the GI50 in test [7] is 2.3 µM (inactive); in [8] it was 5.24 µM (inactive); in [9], 5.36 µM (inactive); in test [10], 7.33 µM (inactive); in test [11] it was 6.92 µM (inactive); in test [12] it was 6.97 µM (inactive). Besides, the GI50 in [13] is 0.713 µM (active).
